# Columns and labels:
# Test in all cases: LC-MS/MS (MRM) of product GP
# Assay type in all cases: biochemical
# AtNUDX1 = target: T1, AtNUDX1 (Arabidopsis thaliana, UniProt Q9CA40); conditions: hydrolysed to GP; His-tagged positive control
# T1 construct: gene NUDT1; E. coli BL21 (DE3) Rosetta, His-tag kept
# CsNUDX1-cyto = target: T2, CsNUDX1-cyto (Camellia sinensis, UniProt A0A4S4EYR7)
# T2 construct: gene TEA_005538; full length, 156 residues; E. coli BL21 (DE3) Rosetta, pET15b, N-terminal His-tag, tested with and without tag
# CsNUDX1-chlo-Δ70 = target: T3, CsNUDX1-chlo-Δ70 (Camellia sinensis, UniProt A0A4S4EZL9); conditions: hydrolysed to GP; transit peptide removed
# T3 construct: gene TEA_000488; N-terminal 70-residue transit peptide removed from the 220-residue protein; E. coli BL21 (DE3) Rosetta, pET15b, N-terminal His-tag
# T3 sequence (A0A4S4EZL9 entry or part of it, stated change not applied): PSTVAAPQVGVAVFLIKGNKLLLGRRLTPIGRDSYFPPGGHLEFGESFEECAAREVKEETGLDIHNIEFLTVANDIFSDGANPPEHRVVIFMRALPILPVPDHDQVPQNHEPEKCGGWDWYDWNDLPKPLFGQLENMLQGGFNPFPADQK
# T2 sequence (A0A4S4EYR7 1-156): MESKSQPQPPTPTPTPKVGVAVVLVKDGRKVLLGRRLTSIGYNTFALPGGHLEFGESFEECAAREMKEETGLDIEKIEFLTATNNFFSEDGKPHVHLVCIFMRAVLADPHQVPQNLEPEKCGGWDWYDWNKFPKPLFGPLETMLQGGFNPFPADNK
# T1 sequence (Q9CA40 whole entry): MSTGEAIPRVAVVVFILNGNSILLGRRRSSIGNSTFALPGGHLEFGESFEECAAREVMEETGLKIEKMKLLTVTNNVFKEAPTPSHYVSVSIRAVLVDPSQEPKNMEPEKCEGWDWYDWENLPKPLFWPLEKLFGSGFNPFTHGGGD
SMILES,LC-MS/MS (MRM) of product GP (AtNUDX1),"LC-MS/MS (MRM) of product GP (CsNUDX1-cyto; hydrolysed to GP, with and without His-tag)",LC-MS/MS (MRM) of product GP (CsNUDX1-chlo-Δ70),LC-MS/MS (MRM) of product GP (CsNUDX1-cyto; from GPP)
CC(C)=CCC/C(C)=C/COP(=O)(O)OP(=O)(O)O [geranyl pyrophosphate],stronger GPP to GP hydrolysis activity than the Arabidopsis AtNUDX1,CsNUDX1-cyto possessed a stronger GPP to GP hydrolysis activity than the Arabidopsis AtNUDX1,exhibited an increased activity compared to the full length CsNUDX1-chlo,–
CC(C)=CCC/C(C)=C/COP(=O)(O)O [geranyl monophosphate],–,–,–,GP was verified in vitro as the direct chemical product of CsNUDX1-cyto

# — publication PMC9131077, “Cytosolic Nudix Hydrolase 1 Is Involved in Geranyl β-Primeveroside Production in Tea” (Frontiers in Plant Science, 2022)
